pEC50: −log10 of the molar value. Read-outs that look alike come from different tables or passages of the source.

As a reminder, the pEC50 is −log10 of the EC50, conventionally taken in molar units. High values mean a low EC50, low ones a high EC50.

For test [1], the target named is T1, human PPARα (Homo sapiens, UniProt Q07869).
T1 construct: expressed in transfected cells; host or cells: Cos-7 cells (ATCC, CRL-1651)
T1 sequence (Q07869 239-466 limits assumed): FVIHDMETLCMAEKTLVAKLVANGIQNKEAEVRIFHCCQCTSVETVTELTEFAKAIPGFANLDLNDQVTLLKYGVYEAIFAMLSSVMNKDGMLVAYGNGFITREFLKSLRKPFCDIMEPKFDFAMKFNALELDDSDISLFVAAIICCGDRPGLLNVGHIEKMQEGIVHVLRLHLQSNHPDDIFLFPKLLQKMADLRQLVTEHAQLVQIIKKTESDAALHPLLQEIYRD
Briefly: Reporter gene transactivation, hPPAR-GAL4 alpha. It counts as cell-based. Conditions: transfected Cos-7 cells, Gal-4 luciferase reporter, 24 hours treatment.

Test [2] addresses T2, human PPARγ (Homo sapiens, UniProt P37231).
T2 construct: expressed in transfected cells; host or cells: Cos-7 cells (ATCC, CRL-1651)
T2 sequence (P37231 238-503 limits assumed): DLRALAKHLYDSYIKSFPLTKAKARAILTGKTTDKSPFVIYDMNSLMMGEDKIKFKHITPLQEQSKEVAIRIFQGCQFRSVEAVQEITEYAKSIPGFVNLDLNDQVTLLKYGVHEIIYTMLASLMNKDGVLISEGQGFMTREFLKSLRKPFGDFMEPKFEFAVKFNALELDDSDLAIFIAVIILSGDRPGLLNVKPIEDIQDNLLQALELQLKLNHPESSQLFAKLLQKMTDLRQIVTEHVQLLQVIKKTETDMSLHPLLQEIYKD
Briefly: Reporter gene transactivation, hPPAR-GAL4 gamma. The test is classed as cell-based. Conditions: transfected Cos-7 cells, Gal-4 luciferase reporter, 24 hours treatment.

For test [3], the system named is insulin-resistant male rat (Ico: ZUCKER-fa/fa). Briefly: Normalization of metabolic parameters (cholesterol, plasma triglycerides) in insulin-resistant rat. The test is classed as in vivo. Conditions: oral route, once per day for four days, Zucker fa/fa rat unfed 16-18 hours; for change in vivo at 2.5 mg/kg / change in vivo at 10 mg/kg: 96 h. As for the experimental part: Normalization of metabolic parameters (cholesterol, plasma triglycerides) in an insulin-resistant male rat (Ico: ZUCKER-fa/fa), unfed for 16-18 hours, after treatment by oral route, once per day for four days, with the compounds to be evaluated or their administration vehicle.
These metabolic parameters are measured by spectrophotometry at the beginning and the end of each animal's treatment.

Setting [4] is: at 10 mg/kg, read-out: Plasma cholesterol.
Where [5] appears, read: at 10 mg/kg, read-out: Plasma triglycerides.

In the case of `CCCCCCCn1nc(OCCc2cccc(OC(C)(C)C(=O)OCC)c2)c(=O)n(C)c1=O` [Example 2, Ethyl 2-{3-[2-(2-heptyl-4-methyl-3,5-dioxo-2,3,4,5-tetrahydro-[1,2,4]triazin-6-yloxy)-ethyl]-phenoxy}-2-methyl-propionate], the pEC50 in test [1] was less than 5.00; in test [2], approximately 5.00.

For `CCOC(=O)C(C)(C)Oc1cccc(CCCCCOc2nn(CCCC(F)(F)F)c(=O)n(C)c2=O)c1` [Example 9, Ethyl 2-methyl-2-(3-{5-[4-methyl-3,5-dioxo-2-(4,4,4-trifluoro-butyl)-2,3,4,5-tetrahydro-[1,2,4]triazin-6-yloxy]-pentyl}-phenoxy)-propionate], the pEC50 in test [1] is 5.00 to 5.52; in test [2] it was approximately 5.00.

On to `CCCCCCCn1nc(NCCCCc2cccc(OC(C)(C)C(=O)OCC)c2)c(=O)n(Cc2ccccc2)c1=O` [Example 91, Ethyl 2-{3-[4-(4-benzyl-2-heptyl-3,5-dioxo-2,3,4,5-tetrahydro-[1,2,4]triazin-6-ylamino)-butyl]-phenoxy}-2-methyl-propionate], for which the figures for the pEC50 in test [1] and in test [2] were 6.00 to 6.52 and 5.00 to 5.52, respectively.

Take `CCCCCCCn1nc(OCCCOc2cccc(SC(C)(C)C(=O)OCC)c2)c(=O)n(C)c1=O` [Example 34, Ethyl 2-{3-[3-(2-heptyl-4-methyl-3,5-dioxo-2,3,4,5-tetrahydro-[1,2,4]triazin-6-yloxy)-propoxy]-phenylsulfanyl}-2-methyl-propionate]: the pEC50 in test [1] and in test [2] was less than 5.00 each time.

`CCCCCCCn1nc(OCCCc2cccc(OC(C)(C)C(=O)OCC)c2)c(=O)n(C)c1=O` [Example 5, Ethyl 2-{3-[3-(2-heptyl-4-methyl-3,5-dioxo-2,3,4,5-tetrahydro-[1,2,4]triazin-6-yloxy)-propyl]-phenoxy}-2-methyl-propionate]: the pEC50 in test [1] is approximately 5.52; in test [2] it was approximately 5.00.

For the compound `CCOC(=O)C(C)(C)Oc1ccc(CCNc2nn(CCCC3CCCCC3)c(=O)n(CCCC(F)(F)F)c2=O)cc1` [Example 105, Ethyl 2-(4-{2-[2-(3-cyclohexyl-propyl)-3,5-dioxo-4-(4,4,4-trifluoro-butyl)-2,3,4,5-tetrahydro-[1,2,4]triazin-6-ylamino]-ethyl}-phenoxy)-2-methyl-propionate], the pEC50 in test [1] was 5.52 to 6.00; in test [2] it was approximately 5.00.

For the compound `CCCCCCCn1c(=O)c(NCCCOc2ccc(SC(C)(C)C(=O)OCC)cc2)nn(C)c1=O` [Example 49, Ethyl 2-{4-[3-(4-heptyl-2-methyl-3,5-dioxo-2,3,4,5-tetrahydro-[1,2,4]triazin-6-ylamino)-propoxy]-phenylsulfanyl}-2-methyl-propionate], the pEC50 in test [1] and in test [2] was less than 5.00 throughout.

`Cn1c(=O)c(NCCc2ccc(SC(C)(C)C(=O)O)cc2)nn(CCCC(F)(F)F)c1=O` [Example 118, 2-Methyl-2-(4-{2-[4-methyl-3,5-dioxo-2-(4,4,4-trifluoro-butyl)-2,3,4,5-tetrahydro-[1,2,4]triazin-6-ylamino]-ethyl}-phenylsulfanyl)-propionic Acid]: the figures for the pEC50 in test [1] and in test [2] were 5.52 to 6.00 and approximately 5.00, respectively.

`CCCCCCCn1c(=O)c(NCCCCc2cccc(SC(C)(C)C(=O)OCC)c2)nn(Cc2ccccc2)c1=O` [Example 99, Ethyl 2-{3-[4-(2-benzyl-4-heptyl-3,5-dioxo-2,3,4,5-tetrahydro-[1,2,4]triazin-6-ylamino)-butyl]-phenylsulfanyl}-2-methyl-propionate]: the pEC50 in test [1] is less than 5.00; in test [2], 5.00 to 5.52.

For `CCCCCCCn1nc(NCCCc2ccc(SC(C)(C)C(=O)OCC)cc2)c(=O)n(C)c1=O` [Example 124, Ethyl 2-{4-[3-(2-heptyl-4-methyl-3,5-dioxo-2,3,4,5-tetrahydro-[1,2,4]triazin-6-ylamino)propyl]-phenylsulfanyl}-2-methyl-propionate], the results for the pEC50 in test [1] and in test [2] were 6.00 to 6.52 and less than 5.00, respectively.

`CCCCCCCN(CCCOc1ccc(SC(C)(C)C(=O)OCC)cc1)c1nn(C)c(=O)n(C)c1=O` [Example 53, Ethyl 2-(4-{3-[(2,4-Dimethyl-3,5-dioxo-2,3,4,5-tetrahydro-[1,2,4]triazin-6-yl)-heptyl-amino]-propoxy}-phenylsulfanyl)-2-methyl-propionate] had a pEC50 in test [1] of 5.52 to 6.00. In addition, the change in vivo at 2.5 mg/kg in test [3] (read-out: Plasma cholesterol) was -7%. Further, in test [3] (setting [4]), the change in vivo at 10 mg/kg is -28%. Further, the Plasma triglycerides entry in test [3] (at 10 mg/kg) is “inactive at 10”.

In test [1], `CCOC(=O)C(C)(C)Oc1ccc(OCCCNc2nn(C)c(=O)n(CCCC(F)(F)F)c2=O)cc1` [Example 46, Ethyl 2-methyl-2-(4-{3-[2-methyl-3,5-dioxo-4-(4,4,4-trifluoro-butyl)-2,3,4,5-tetrahydro-[1,2,4]triazin-6-ylamino]-propoxy}-phenoxy)-propionate] had a pEC50 of 6.00 to 6.52. Besides, the change in vivo at 10 mg/kg is -13% in test [3] (setting [4]) and -32% in test [3] (setting [5]).

The compound `CCCCCCCn1nc(OCCc2ccc(OC(C)(C)C(=O)OCC)cc2)c(=O)n(C)c1=O` [Example 25, Ethyl 2-{4-[2-(2-heptyl-4-methyl-3,5-dioxo-2,3,4,5-tetrahydro-[1,2,4]triazin-6-yloxy)-ethyl]-phenoxy}-2-methyl-propionate] gave a pEC50 in test [2] of less than 5.00.

As to `CCCCCCCn1c(=O)c(NCCc2cccc(OC(C)(C)C(=O)OCC)c2)nn(C)c1=O` [Example 59, Ethyl 2-{3-[2-(4-heptyl-2-methyl-3,5-dioxo-2,3,4,5-tetrahydro-[1,2,4]triazin-6-ylamino)-ethyl]-phenoxy}-2-methyl-propionate], the negative-log EC50 (pEC50) in test [1] was 5.52 to 6.00. Further, the values for the change in vivo at 2.5 mg/kg in test [3] (read-out: Plasma cholesterol) and in test [3] (read-out: Plasma triglycerides) were -37% and -13%, respectively.

In the case of `Cn1nc(NCCCCc2cccc(OC(C)(C)C(=O)OC(C)(C)C)c2)c(=O)n(CCCC(F)(F)F)c1=O` [Example 78, Tert-butyl 2-methyl-2-(3-{4-[2-methyl-3,5-dioxo-4-(4,4,4-trifluoro-butyl)-2,3,4,5-tetrahydro-[1,2,4]triazin-6-ylamino]-butyl}-phenoxy)-propionate], the pEC50 in test [1] is less than 5.00.

Compound `CCCCCCCn1nc(NCCc2ccc(OC(C)(C)C(=O)OCC)cc2)c(=O)n(CCCCCCC)c1=O` [Example 108, Ethyl 2-{4-[2-(2,4-diheptyl-3,5-dioxo-2,3,4,5-tetrahydro-[1,2,4]triazin-6-ylamino)-ethyl]-phenoxy}-2-methyl-propionate] gave a pEC50 in test [1] of less than 5.00.

In the case of `CCCCCCCn1c(=O)c(NCCCc2cccc(OC(C)(C)C(=O)OCC)c2)nn(C)c1=O` [Example 67, Ethyl 2-{3-[3-(4-heptyl-2-methyl-3,5-dioxo-2,3,4,5-tetrahydro-[1,2,4]triazin-6-ylamino)-propyl]-phenoxy}-2-methyl-propionate], the pEC50 in test [1] is approximately 6.00. Also, the change in vivo at 10 mg/kg is -14% in test [3] (setting [4]) and -23% in test [3] (setting [5]).

As to `CCCCCCCn1c(=O)c(OCCc2ccc(OC(C)(C)C(=O)OCC)cc2)nn(C)c1=O` [Example 26, Ethyl 2-{4-[2-(4-heptyl-2-methyl-3,5-dioxo-2,3,4,5-tetrahydro-[1,2,4]triazin-6-yloxy)-ethyl]-phenoxy}-2-methyl-propionate], the pEC50 in test [1] was less than 5.00.

Source of the values: patent publication US7713971B2, “1,2,4-triazine derivatives, preparation and use thereof in human therapy” (Pierre Fabre Medicament, priority 2005, dated 2010).
